Laboratory results reported in patent US7759399B2, “Pharmaceutical compositions” (priority 2002, dated 2010).
Like-named read-outs stand apart in the source and are kept apart here.

Legend:
[1] = system: NF-κB; assay: NF-κB-dependent luciferase reporter gene assay, HeLa κB-transformed cells, TPA stimulated; type: cell-based; details: 8 h treatment, TPA 25 ng/ml 2 h after exposure, read-out: NF-κB, IC50 (concentration at which the compound halved the NF-κB activity)
Protocol: (§1) Method: HeLa cell clone 13B, stably transfected with a luciferase reporter plasmid controlled by the human hsp70 promoter, and HeLa κB-transformed cells, stably transfected with a luciferase reporter plasmid controlled by a synthetic NF-κB-STM construct, were maintained in DMEM medium supplemented with 10% FBS, L-glutamine (2 mM) and G418 (250 μg/ml) at 37° C. in a 5% CO2 humidified atmosphere.
(§2) Cells were seeded at a density of 4×10^4 cells/well in 96-well plates. After 18-20 h, the medium was removed and cells were treated for 8 h with the test compounds (100 μl) at the appropriate dilutions in serum-free medium. For the NF-κB-dependent reporter gene assay, cells were stimulated with TPA (25 ng/ml) 2 h after exposure to the compounds.
(§3) After incubation, the medium was removed and cells were lysed in 10 μl of lysis buffer. The luciferase activity was determined by adding 100 μl of substrate and measuring the release of light using a Victor 1420 microplate reader (Wallac, Finland).
(§4) The fragment Kpn I-BamH I from the pGL3 basic vector containing the luciferase gene (PROMEGA) was inserted in the pcDNA3 vector (INVITROGEN) digested with Bgl II-KpnI. (This digestion removes the CMV-promoter from pcDNA3.) The resulting new vector was digested with Kpn I-Hind III and a promoter containing a ‘5xNF-κB binding sites—TATA box’ sequence was inserted upstream of the luciferase gene. This vector has been named STM.
(§5) To obtain stable HeLa cell lines expressing the luciferase gene under the control of NF-κB, HeLa cells were transfected (using lipofectamine plus GIBCO) with the STM-Pvu I linearized vector, and selected for 20 days with G418 (800 μg/ml). After selection, the resistant HeLa cell pool was controlled (in quadruplicate samples) for luciferase activity after stimulation with TNFα, IL-1 and TPA.
(§6) The AC200/μM for HSF is the concentration at which the tested compound doubled the HSF activity in this assay. The IC50/μM for NF-κB is the concentration at which the tested compound halved the NF-κB activity in this assay.

[2] = system: HSF; assay: HSF luciferase reporter assay, HeLa cell clone 13B (human hsp70 promoter); type: cell-based; details: 8 h, HeLa clone 13B, 8 h treatment, serum-free medium, read-out: HSF, AC200 (concentration at which the compound doubled the HSF activity)
Protocol: as §1, §2, §3, §6

[3] = system: uninfected 37RC cells; details: monkey
[4] = system: Sendai virus; assay: Sendai virus replication in 37RC cells (virus yield by HAU titration); type: cell-based; details: Respirovirus muris, 5 HAU/10^5 cells, virus yield at 24 hours after infection, read-out: ID50 (50% inhibitory dose/concentration), Sendai virus yield
[5] = in vitro; type: cell-based; details: 37RC cells, 24 h treatment; read-out: LC50 (50% lethal dose/concentration), Neutral Red
Protocol: (§7) Cell viability was determined using the Neutral Red assay. 37RC cells were seeded at density of 6×10^4 cells/well in 24-well plates and incubated for 24 h. Confluent 37RC monolayers were treated with the test compounds at different dilutions for 24 h at 37° C. After incubation, the medium was removed and the cells were incubated with RPMI medium containing 40 μg/ml Neutral Red dye (500 μl/well). After 2 h at 37° C., the monolayers were washed with phosphate-buffered saline (PBS) and then with a solution containing 1% CaCl2 and 0.5% formaldehyde. After washing, a solution containing 1% acetic acid/50% ethanol was added to the monolayers (250 μl/well). After 10 min at room temperature, the absorbance was determined with a microplate reader (Victor 1420, Wallac) at 540 nm.

[6] = system: 37RC cells; assay: in vitro; type: cell-based; details: 24 h treatment, read-out: LC50 (50% lethal dose/concentration), Neutral Red
Protocol: as §7

[7] = system: HSF1; details: concentration of 125-500 μM; cited from earlier work
[8] = system: NF-κB; details: same concentration (125-500 μM); cited from earlier work
[9] = system: NF-κB; assay: EMSA of NF-κB DNA-binding activity in TPA-stimulated Jurkat T cells; type: cell-based, Human; details: Jurkat T cells treated 1 hour, then TPA 25 ng/ml, extracts after 3 hours; FIGS. 1(b)-6(b)
Protocol: Methods: Human lymphoblastoid Jurkat T cells were grown at 37° C. in a 5% CO2 atmosphere in RPM1 1640 medium (GIBCO BRL, Gaithersburg, Md.) supplemented with 10% fetal calf serum (FCS, Hyclone Europe Ltd, UK) 2 mM glutamine and antibiotics according to the method described by A. Rossi et al. (Proc. Natl. Acad. Sci. USA 94: 746-750, 1997). The test compounds were stored as a 100% ethanolic stock solution (100 mM) or in DMSO (100 mM) and diluted to the appropriate concentration in culture medium at the time of use. Cells were treated with different concentrations of test compound for 1 hour and then stimulated with 12-O-tetradecanoylphorbol-13-acetate (TPA, 25 ng/ml), which is a strong inducer of NF-κB. Control cells received an equal amount of control diluent. After 3 hours whole-cell extracts were prepared and subjected to analysis of DNA-binding activity by EMSA (Electrophoretic Mobility Shift Assay) for detection of HSF or NF-κB activation, according to the method described by A. Rossi et al. (Proc. Natl. Acad. Sci. USA 94: 746-750, 1997).
Specificity of protein-DNA complexes was verified by immunoreactivity with polyclonal antibodies specific for p65 (Rel A) or for HSF-1, for NF-κB and HSF respectively. Quantitative evaluation of NF-κB and HSF-DNA complex formation was determined by Molecular Dynamics Phosphorimager (MDP) analysis and was expressed in arbitrary units, as described in A. Rossi et al. (J. Biol. Chem. 273: 16446-16452, 1998). The results from representative experiments are shown in FIGS. 1(b), 2(b), 3(b), 4(b), 5 and 6(b) for compounds CTM-50, CTM-49, CTM-36, CTM-30, CTC-130 and CTC-109, as identified above.

[10] = system: uninfected 37RC cells; assay: Toxicity to uninfected cells, determined visually by microscopy (TD100)
[11] = Alamar Blue cytotoxicity assay; type: cell-based; details: human
Protocol: HeLa cells were plated in 96-well microtiter plates in 100 μl culture medium (4×10^4/well). After 20 hours, the cells were exposed to the test compounds at different dilutions and incubated for the next 8 h at 37° C. in a 5% CO2 humidified atmosphere. After 6 h incubation, the Alamar Blue was added in an amount equal to 10% of the culture volume (10 μl). Two hours after the addition of the Alamar Blue, the fluorescence was measured using a Victor 1420 microplate reader.
The LC50/μM is the concentration at which the tested compound killed half the cells in this assay.

[12] = doses from 30 μg/kg/min; cited from earlier work
[13] = system: NF-κB; assay: Luciferase activity of G418-resistant HeLa cell pool transfected with NF-κB-LUC after stimulation; type: cell-based; details: NF-κB-LUC (STM vector), quadruplicate samples, control 1369±149
Description: as §4, §5

| IC50 ([4]; 24 h) [µM] | Molecule | IC50 ([1]; Homo sapiens, HeLa) [µM] | EC (2-fold) [2] [µM] | TD100 (dose or concentration at which the compound was 100% toxic to uninfected cells) [3] [µM] | CC50 at 24 h [5] [µM] | IC50 [4] [µM] | NF-κB-DNA complex formation (EMSA), result in words [9] | other results |
| --- | --- | --- | --- | --- | --- | --- | --- | --- |
| 4 | CC(C)(C)C(=O)OC1[C@@H](Sc2ccc3ccccc3c2)CC(=O)C1(C)C (stereo in doubt) [CTM-191, 2,2-dimethylpropionic acid (1R,5S)-2,2-dimethyl-5-(naphthalen-2-ylsulfanyl)-3-oxocyclopentyl ester] | 25 | 18 | 50 | 24 | – | – | – |
| – | CC(C)(C)C(=O)O[C@H]1[C@H](Sc2ccc3ccccc3c2)CC(=O)C1(C)C (stereo in doubt) [CTM-192, 2,2-dimethylpropionic acid (1R,5R)-2,2-dimethyl-5-(naphthalen-2-ylsulfanyl)-3-oxocyclopentyl ester] | – | – | 50 | – | – | – | IC50 [1]: 28 µM; CC50 [6]: 22 µM |
| 3 | CC(C)(C)C(=O)OC1[C@H](Sc2ccc3ccccc3c2)CC(=O)C1(C)C (stereo in doubt) [CTM-193, 2,2-dimethylpropionic acid (1S,5R)-2,2-dimethyl-5-(naphthalen-2-ylsulfanyl)-3-oxocyclopentyl ester] | 32 | 26 | 50 | 23 | – | – | – |
| – | O=C1C=CCC1 [CTC-1, cyclopent-2-en-1-one, reference compound] | – | – | >500 | – | 90 | – | HSF1 activation, result in words [7]: able to activate HSF1; block of NF-κB activation by chemical or physiological inducers, result in words [8]: able to block NF-κB activation |
| 3 | COC(=O)[C@H](CSC1C=CC(=O)C1)NC(=O)OC(C)(C)C (stereo partly shown) [CTC-109] | – | – | 500 | – | – | inhibitors of NF-κB | – |
| – | COC(=O)[C@H](CSC1C=C(C(SC[C@H](NC(=O)OC(C)(C)C)C(=O)OC)C(C)C)C(=O)C1)NC(=O)OC(C)(C)C (stereo partly shown) [CTC-130] | – | – | – | – | – | inhibitors of NF-κB | – |
| – | COC(=O)[C@H](CSC1CC(=O)C[C@@H]1O[Si](C)(C)C(C)(C)C)NC(=O)OC(C)(C)C (stereo partly shown) [CTM-36] | – | – | – | – | 4 | inhibitors of NF-κB | TD100 (dose or concentration at which the compound was 100% toxic to uninfected cells) [10]: >500 µM |
| 20 | COC(=O)[C@H](CSC1CCC(=O)C1)NC(=O)OC(C)(C)C (stereo partly shown) [CTM-49] | – | – | >500 | – | – | inhibitors of NF-κB | – |
| 10 | COC(=O)[C@H](CSC1=CC(=O)CC1)NC(=O)OC(C)(C)C [CTM-50] | – | – | >500 | – | – | inhibitors of NF-κB | – |
| – | CC(C)(C)[Si](C)(C)O[C@H]1CC(=O)C[C@@H]1Sc1ccncc1 [CTM-132] | 33 | 13 | – | 2.6 | 0.2 | – | CC50 at 8 h [11]: 220 µM; TD100 (dose or concentration at which the compound was 100% toxic to uninfected cells) [10]: 10 µM |
| – | CC(C)(C)[Si](C)(C)O[C@H]1CC(=O)C[C@@H]1SCCS(=O)(=O)O [CTM-165] | 50 | 26 | – | 21 | 1 | – | CC50 at 8 h [11]: > 800 µM; TD100 (dose or concentration at which the compound was 100% toxic to uninfected cells) [10]: 50 µM |
| – | COc1ccc(S[C@H]2CC(=O)C[C@@H]2O[Si](C)(C)C(C)(C)C)cc1 [CTM-169] | 38 | 26 | – | 22 | 1.5 | – | CC50 at 8 h [11]: > 800 µM; TD100 (dose or concentration at which the compound was 100% toxic to uninfected cells) [10]: 50 µM |
| – | CCCCC[C@H](O)/C=C/[C@H]1C=CC(=O)[C@@H]1CCCCCCC(=O)O [Prostaglandin A1] | – | – | – | – | – | – | effect on blood pressure [12]: dose-dependant falls in blood pressure |
| – | CCCCC[C@H](O)/C=C/[C@H]1[C@H](O)CC(=O)[C@@H]1CCCCCCC(=O)O [Prostaglandin E1] | – | – | – | – | – | – | effect on blood pressure [12]: dose-dependant falls in blood pressure |
| – | CCCCCCCCCCCCCC(=O)O[C@@H]1[C@@H](C)[C@@]2(O)[C@@H](C=C(CO)C[C@]3(O)C(=O)C(C)=C[C@@H]23)[C@@H]2C(C)(C)[C@]12OC(C)=O [TPA, 12-O-tetradecanoylphorbol-13-acetate] | – | – | – | – | – | – | luciferase activity [13]: 7181±444 |
| – | TNFα | – | – | – | – | – | – | luciferase activity [13]: 6111±1231 |
